Data published in patent US20170152258A9, “Substituted Pyridopyrazines as Syk Inhibitors” (HUTCHISON MEDIPHARMA LIMITED, priority 2012, published 2017).

Columns and labels:
Syk kinase = Syk kinase (Homo sapiens, UniProt P43405); assay: SYK Enzymatic Assay (Z-LYTE Tyr 2 peptide); format: biochemical; conditions: 8 concentrations 1 μM down to 0.0003 μM
Outline: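 Z-LYTE format using Tyr 2 peptide. After the 1 h room-temperature kinase reaction, development reagent was added for 1 h, then stop reagent. Fluorescence was read at 445 and 520 nm. Compounds were tested at 8 concentrations, 1 μM down to 0.0003 μM (1:3 dilutions).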

RBL-2H3 cells = assay: IgE-induced Beta-hexosaminidase secretion in RBL-2H3 cells; format: cell-based; conditions: DNP-BSA stimulation
Outline: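 RBL-2H3 cells sensitized overnight with 0.5 ug/ml SPE-7 IgE, washed, preincubated with compound 20 min at 37° C, then stimulated with DNP-BSA (150 ng/mL stock) for 45 min. Released β-hexosaminidase measured on supernatant with 1 mM 4-nitrophenyl N-acetyl-β-D-glucosaminide, pH 4.5, 1.5 hr at 37° C; absorbance 405 nm after carbonate quench.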

[1] = Rattus norvegicus, RBL-2H3, IgE-induced Beta-hexosaminidase secretion
[2] = IgE-induced Beta-hexosaminidase secretion

IC50 (Syk kinase) [nM]	IC50 (RBL-2H3 cells; [1]) [nM]	IC50 (RBL-2H3 cells; [2]) [nM]	SMILES	IC50 (RBL-2H3 cells; Rattus norvegicus, IgE-induced Beta-hexosaminidase secretion) [nM]
64	108	–	CNc1ccc(-c2cc3nccnc3c(OC[C@@H]3CN(C(=O)[C@H]4CCOC4)CCO3)n2)cc1 [Compound 50]	–
65	144	–	CNS(=O)(=O)N1CCO[C@H](COc2nc(-c3ccc(N4CCOCC4)cc3)cc3nccnc23)C1 [Compound 55]	–
17	174	–	CC(C)(C(=O)O)c1ccc(-c2cc3nccnc3c(OC[C@@H]3CN(S(C)(=O)=O)CCO3)n2)cc1 [Compound 318]	–
88	54	–	CC(=O)N1CCO[C@H](COc2nc(-c3ccc(C(C)(C)C#N)cc3)cc3nccnc23)C1 [Compound 248]	–
25	631	–	CS(=O)(=O)N1CCO[C@H](COc2nc(-c3ccc(N4CCNCC4)cc3)cc3nccnc23)C1 [Compound 14]	–
80	244	–	CNC(=O)N1CCO[C@H](COc2nc(-c3ccc(OC)c(OC)c3)cc3nccnc23)C1 [Compound 143]	–
28	112	–	CC(C)(C#N)c1ccc(-c2cc3nccnc3c(OCC3CN(S(N)(=O)=O)CCO3)n2)cc1 (centres unmarked) [Compound 250]	–
28	39	–	CC(C)(O)C1CCN(c2ccc(-c3cc4nccnc4c(O[C@@H]4CCOC4)n3)cc2)CC1 [Compound 228]	–
15	22	40	CN(C)c1ccc(-c2cc3nccnc3c(OC[C@@H]3CN(S(C)(=O)=O)CCO3)n2)cc1 [Compound 94]	–
33	94	–	CC1(c2ccc(-c3cc4nccnc4c(OC[C@@H]4CN(S(C)(=O)=O)CCO4)n3)cc2)COC1 [Compound 317]	–
28	45	–	CNC(=O)N1CCO[C@H](COc2nc(-c3ccc(N(C)C)cc3)cc3nccnc23)C1 [Compound 137]	–
33	26	–	CS(=O)(=O)N1CCN(c2ccc(-c3cc4nccnc4c(O[C@@H]4CCOC4)n3)cc2)CC1 [Compound 153]	–
25	99	–	CN(C)c1ccc(-c2cc3nccnc3c(OC[C@@H]3CN(C(N)=O)CCO3)n2)cc1 [Compound 136]	–
127	335	–	CN(C)c1ccc(-c2cc3nccnc3c(OC[C@@H]3CN(C(=O)C4CC(F)(F)C4)CCO3)n2)cc1 [Compound 71]	–
94	159	–	CNc1ccc(-c2cc3nccnc3c(OC[C@@H]3CN(C(=O)[C@H]4CCCO4)CCO3)n2)cc1 [Compound 51]	–
49	100	–	Cc1cc(-c2cc3nccnc3c(OC[C@@H]3CN(C(=O)[C@H](C)O)CCO3)n2)ccc1N(C)C [Compound 201]	–
97	194	–	CC(C)(C)C(O)c1ccc(-c2cc3nccnc3c(OC[C@@H]3CN(S(C)(=O)=O)CCO3)n2)cc1 (some centres unmarked) [Compound 284]	–
76	95	–	CN(C)c1ccc(-c2cc3nccnc3c(OC[C@@H]3CN(C(N)=O)CCO3)n2)cc1F [Compound 183]	–
30	88	–	CS(=O)(=O)N1CCO[C@H](COc2nc(-c3ccc(N4CCCCC4)cc3)cc3nccnc23)C1 [Compound 21]	–

IC50 (Syk kinase) [nM]	IC50 (RBL-2H3 cells; [1]) [nM]	IC50 (RBL-2H3 cells; [2]) [nM]	SMILES	IC50 (RBL-2H3 cells; Rattus norvegicus, IgE-induced Beta-hexosaminidase secretion) [nM]
55	69	–	CC(C)c1ccc(-c2cc3nccnc3c(OC[C@@H]3CN(C(N)=O)CCO3)n2)cc1 [Compound 175]	–
63	110	–	CC(C)C(=O)N1CCO[C@H](COc2nc(-c3ccc(N(C)C)cc3)cc3nccnc23)C1 [Compound 68]	–
24	135	–	NS(=O)(=O)N1CCO[C@H](COc2nc(-c3ccc(C4CCOCC4)cc3)cc3nccnc23)C1 [Compound 260]	–
92	97	–	COc1ccc(-c2cc3nccnc3c(O[C@@H]3CCOC3)n2)cc1OC [Compound 150]	–
32	37	–	CN(C)c1ccc(-c2cc3nccnc3c(OC[C@@H]3CN(S(C)(=O)=O)CCO3)n2)cc1F [Compound 53]	–
103	123	–	CN1CCOC(COc2nc(-c3ccc(C4CCN(S(C)(=O)=O)CC4)cc3)cc3nccnc23)C1=O (centres unmarked) [Compound 315]	–
38	339	–	CNC(=O)N1CCO[C@H](COc2nc(-c3ccc(C(C)(C)O)cc3)cc3nccnc23)C1 [Compound 264]	–
57	71	–	CC(O)c1ccc(-c2cc3nccnc3c(OC[C@@H]3CN(S(C)(=O)=O)CCO3)n2)cc1 (stereo partly drawn) [Compound 213, 1-(4-(5-(((S)-4-(methylsulfonyl)morpholin-2-yl)methoxy)pyrido[3,4-b]pyrazin-7-yl)phenyl)ethanol]	–
95	119	194	CC(=O)N1CCO[C@H](COc2nc(-c3ccc(N(C)C)c(F)c3)cc3nccnc23)C1 [Compound 139]	–
36	53	–	Cc1cc(-c2cc3nccnc3c(OC[C@@H]3CN(C(N)=O)CCO3)n2)ccc1N(C)C [Compound 163]	–
81	114	–	CC(=O)N1CCO[C@H](COc2nc(-c3ccc(N4CCN(C)CC4)c(C)c3)cc3nccnc23)C1 [Compound 186]	–
99	213	–	CN(C)c1ccc(-c2cc3nccnc3c(OC[C@@H]3CN(C(=O)CC4CC4)CCO3)n2)cc1 [Compound 70]	–
97	131	–	CS(=O)(=O)N1CCO[C@H](COc2nc(-c3ccc4c(c3)OCCO4)cc3nccnc23)C1 [Compound 109]	–
32	54	–	CN(C)c1ccc(-c2cc3nccnc3c(OC[C@@H]3CN(C(=O)CO)CCO3)n2)cc1 [Compound 173]	–
19	63	–	CN(C)c1ccc(-c2cc3nccnc3c(OC[C@@H]3CN(S(N)(=O)=O)CCO3)n2)cc1 [Compound 178]	–
31	68	–	CN(C)c1ccc(-c2cc3nccnc3c(OC[C@@H]3CN(C(=O)C(F)F)CCO3)n2)cc1 [Compound 100]	–
127	186	–	CN(C)c1ccc(-c2cc3nccnc3c(OC[C@@H]3CN(C(=O)[C@H]4CC[C@H](O)CC4)CCO3)n2)cc1 [Compound 74]	–
55	230	–	CN(C)c1ccc(-c2cc3nccnc3c(OC[C@@H]3CN(C(=O)C4CCCC4)CCO3)n2)cc1 [Compound 98]	–
23	106	–	CNC(=O)CS(=O)(=O)N1CCO[C@H](COc2nc(-c3ccc(N(C)C)cc3)cc3nccnc23)C1 [Compound 99]	–

IC50 (Syk kinase) [nM]	IC50 (RBL-2H3 cells; [1]) [nM]	IC50 (RBL-2H3 cells; [2]) [nM]	SMILES	IC50 (RBL-2H3 cells; Rattus norvegicus, IgE-induced Beta-hexosaminidase secretion) [nM]
58	77	–	CN(C)c1ccc(-c2cc3nccnc3c(OC3CCCOC3)n2)cc1 (centres unmarked) [Compound 127]	–
25	40	–	CN1CCN(c2ccc(-c3cc4nccnc4c(OC[C@@H]4CN(S(C)(=O)=O)CCO4)n3)cc2)CC1 [Compound 13]	–
75	83	–	CNS(=O)(=O)N1CCOC(COc2nc(-c3ccc(C(C)(C)C#N)cc3)cc3nccnc23)C1 (centres unmarked) [Compound 251]	–
30	32	–	CC(=O)N1CCO[C@H](COc2nc(-c3ccc(N(C)C)c(C)c3)cc3nccnc23)C1 [Compound 158]	–
38	108	–	CN(C)c1ccc(-c2cc3nccnc3c(OC[C@@H]3CN(S(=O)(=O)CCN4CC[C@@H](O)C4)CCO3)n2)cc1 [Compound 102]	–
85	81	–	C[C@H](O)C(=O)N1CCO[C@H](COc2nc(-c3ccc(N(C)C)cc3)cc3nccnc23)C1 [Compound 197]	–
28	39	–	CCN(CC)c1ccc(-c2cc3nccnc3c(OC[C@@H]3CN(C(C)=O)CCO3)n2)cc1 [Compound 131]	–
69	873	–	NS(=O)(=O)N1CCO[C@H](COc2nc(-c3ccc(C4(O)CCC4)cc3)cc3nccnc23)C1 [Compound 312]	–
47	302	–	CN1CCN(c2ccc(-c3cc4nccnc4c(OC[C@@H]4CNC(=O)C4)n3)cc2)CC1 [Compound 225]	–
58	230	–	COCCS(=O)(=O)N1CCO[C@H](COc2nc(-c3ccc(N4CCOCC4)cc3)cc3nccnc23)C1 [Compound 66]	–
14	127	–	CC(=O)N1CC(C)(c2ccc(-c3cc4nccnc4c(OC[C@@H]4CN(S(C)(=O)=O)CCO4)n3)cc2)C1 [Compound 321]	–
40	142	–	NS(=O)(=O)N1CCO[C@H](COc2nc(-c3ccc(N4CCCCC4)cc3)cc3nccnc23)C1 [Compound 28]	–
16	34	–	CCN(CC)c1ccc(-c2cc3nccnc3c(OC[C@@H]3CN(S(C)(=O)=O)CCO3)n2)cc1 [Compound 119]	–
33	76	–	Cn1ccc2cc(-c3cc4nccnc4c(OC[C@@H]4CN(S(C)(=O)=O)CCO4)n3)ccc21 [Compound 39]	–
41	66	–	CS(=O)(=O)N1CCO[C@H](COc2nc(-c3ccc(N4CCC(F)(F)CC4)cc3)cc3nccnc23)C1 [Compound 20]	–
37	70	–	OCCN1CCC(c2ccc(-c3cc4nccnc4c(O[C@@H]4CCOC4)n3)cc2)CC1 [Compound 227]	–
87	315	–	CC(=O)N1CCO[C@H](COc2nc(-c3ccc(N4CCN(CCO)CC4)cc3)cc3nccnc23)C1 [Compound 49]	–
50	241	–	N#CC1(c2ccc(-c3cc4nccnc4c(OC[C@@H]4CN(S(N)(=O)=O)CCO4)n3)cc2)CC1 [Compound 293]	–

SMILES	IC50 (Syk kinase) [nM]	IC50 (RBL-2H3 cells; [1]) [nM]	IC50 (RBL-2H3 cells; [2]) [nM]	IC50 (RBL-2H3 cells; Rattus norvegicus, IgE-induced Beta-hexosaminidase secretion) [nM]
O=C(C(F)F)N1CCO[C@H](COc2nc(-c3ccc(N4CCNCC4)cc3)cc3nccnc23)C1 [Compound 6, (S)-2,2-difluoro-1-(2-((7-(4-(piperazin-1-yl)phenyl)pyrido[4,3-b]pyrazin-5-yloxy)methyl)morpholino)ethanone]	34	–	–	260
